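A five-concentration, 48-hour dose response in 96-well plates underlies each endpoint, interpolated linearly between surrounding concentrations. The concentration for full growth arrest is given as TGI.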
Key:
Test in all cases: NCI anticancer screen, dose series, 48 h
[1] = tested on: 786-0 renal
[2] = tested on: SR leukemia
[3] = tested on: SK-MEL-28 melanoma
[4] = tested on: KM20L2 colon
[5] = tested on: NCI-H460 lung
[6] = tested on: DMS 273 small cell lung
[7] = tested on: A549 NSCLC
[8] = tested on: KM12 colon
[9] = tested on: LOX IMVI melanoma
[10] = tested on: HCC-2998 colon
[11] = tested on: HL-60(TB) leukemia
[12] = tested on: A498 renal
[13] = tested on: SK-OV-3 ovarian
[14] = tested on: DLD-1 colon
[15] = tested on: UO-31 renal
[16] = tested on: K-562 leukemia
[17] = tested on: U251 CNS
[18] = tested on: UACC-62 melanoma
[19] = tested on: SW-620 colon
[20] = tested on: LXFL 529 NSCLC
[21] = tested on: HOP-18 NSCLC
[22] = tested on: HCT-116 colon
[23] = tested on: OVCAR-4 ovarian
[24] = tested on: CCRF-CEM leukemia
[25] = tested on: EKVX NSCLC
[26] = tested on: RPMI-8226 leukemia
[27] = tested on: HT29 colon
[28] = tested on: ACHN renal
[29] = tested on: SK-MEL-5 melanoma
[30] = tested on: NCI-H23 lung
[31] = tested on: SNB-75 CNS
[32] = tested on: NCI-H522 lung
[33] = tested on: UACC-257 melanoma
[34] = tested on: M19-MEL melanoma
[35] = tested on: DMS 114 small cell lung
[36] = tested on: SK-MEL-2 melanoma
[37] = tested on: COLO 205 colon
[38] = tested on: SF-268 CNS
[39] = tested on: IGROV1 ovarian
[40] = tested on: NCI-H226 lung
[41] = tested on: OVCAR-8 ovarian
[42] = tested on: SF-295 CNS
[43] = tested on: HCT-15 colon
[44] = tested on: RXF 393 renal
[45] = tested on: SN12C renal
[46] = tested on: MOLT-4 leukemia
[47] = tested on: MALME-3M melanoma
[48] = tested on: OVCAR-5 ovarian
[49] = tested on: M14 melanoma
[50] = tested on: SNB-19 CNS
[51] = tested on: OVCAR-3 ovarian
[52] = tested on: CAKI-1 renal
[53] = tested on: HOP-62 NSCLC
[54] = tested on: TK-10 renal
[55] = tested on: MCF7 breast
[56] = tested on: MDA-N
[57] = tested on: NCI/ADR-RES ovarian
[58] = tested on: T-47D breast
[59] = tested on: DU-145 prostate
[60] = tested on: SF-539 CNS
[61] = tested on: PC-3 prostate
[62] = tested on: MDA-MB-435
[63] = tested on: MDA-MB-231 breast
[64] = tested on: HOP-92 NSCLC
[65] = tested on: HS 578T breast
[66] = tested on: BT-549 breast

Compound: CCN(CC)C(=O)c1cccc2c(OC)ccc(OC)c12
- TGI [1]: > 100 µM
- TGI [2]: > 100 µM
- TGI [3]: > 100 µM
- TGI [4]: > 100 µM
- TGI [5]: > 100 µM
- TGI [6]: > 100 µM
- TGI [7]: > 100 µM
- TGI [8]: > 100 µM
- TGI [9]: > 100 µM
- TGI [10]: > 100 µM
- TGI [11]: > 100 µM
- TGI [12]: > 100 µM
- TGI [13]: > 100 µM
- TGI [14]: > 100 µM
- TGI [15]: > 100 µM
- TGI [16]: > 100 µM
- TGI [17]: > 100 µM
- TGI [18]: > 100 µM
- TGI [19]: > 100 µM
- TGI [20]: > 100 µM
- TGI [21]: > 100 µM
- TGI [22]: > 100 µM
- TGI [23]: > 100 µM
- TGI [24]: > 100 µM
- TGI [25]: > 100 µM
- TGI [26]: > 100 µM
- TGI [27]: > 100 µM
- TGI [28]: > 100 µM
- TGI [29]: > 100 µM
- TGI [30]: > 100 µM
- TGI [31]: > 100 µM
- TGI [32]: > 100 µM
- TGI [33]: > 100 µM
- TGI [34]: > 100 µM
- TGI [35]: > 100 µM
- TGI [36]: > 100 µM
- TGI [37]: > 100 µM
- TGI [38]: > 100 µM
- TGI [39]: > 100 µM
- TGI [40]: > 100 µM
- TGI [41]: > 100 µM
- TGI [42]: > 100 µM
- TGI [43]: > 100 µM
- TGI [44]: > 100 µM
- TGI [45]: > 100 µM
- TGI [46]: > 100 µM
- TGI [47]: > 100 µM
- TGI [48]: > 100 µM
- TGI [49]: > 100 µM
- TGI [50]: > 100 µM
- TGI [51]: > 100 µM
- TGI [52]: > 100 µM
- TGI [53]: > 100 µM
- TGI [54]: > 100 µM

Compound: CC(C)(C)CNCCO
- TGI [55]: > 100 µM
- TGI [1]: > 100 µM
- TGI [2]: > 100 µM
- TGI [3]: > 100 µM
- TGI [5]: > 100 µM
- TGI [56]: > 100 µM
- TGI [7]: > 100 µM
- TGI [57]: > 100 µM
- TGI [8]: > 100 µM
- TGI [9]: > 100 µM
- TGI [10]: > 100 µM
- TGI [11]: > 100 µM
- TGI [12]: > 100 µM
- TGI [13]: > 100 µM
- TGI [15]: > 100 µM
- TGI [58]: > 100 µM
- TGI [16]: > 100 µM
- TGI [17]: > 100 µM
- TGI [18]: > 100 µM
- TGI [59]: > 100 µM
- TGI [19]: > 100 µM
- TGI [60]: > 100 µM
- TGI [61]: > 100 µM
- TGI [62]: > 100 µM
- TGI [22]: > 100 µM
- TGI [63]: > 100 µM
- TGI [23]: > 100 µM
- TGI [24]: > 100 µM
- TGI [25]: > 100 µM
- TGI [26]: > 100 µM
- TGI [27]: > 100 µM
- TGI [28]: > 100 µM
- TGI [29]: > 100 µM
- TGI [30]: > 100 µM
- TGI [31]: > 100 µM
- TGI [32]: > 100 µM
- TGI [33]: > 100 µM
- TGI [36]: > 100 µM
- TGI [37]: > 100 µM
- TGI [38]: > 100 µM
- TGI [64]: > 100 µM
- TGI [65]: > 100 µM
- TGI [39]: > 100 µM
- TGI [40]: > 100 µM
- TGI [66]: > 100 µM
- TGI [41]: > 100 µM
- TGI [42]: > 100 µM
- TGI [43]: > 100 µM
- TGI [44]: > 100 µM
- TGI [45]: > 100 µM
- TGI [46]: > 45.7 µM
- TGI [47]: > 100 µM
- TGI [48]: > 100 µM
- TGI [49]: > 100 µM
- TGI [50]: > 100 µM
- TGI [51]: > 100 µM
- TGI [52]: > 100 µM
- TGI [53]: > 100 µM
- TGI [54]: > 100 µM

Compound: CC1(N2CCOCC2)CC2C(=[N+]1[O-])CCC/C2=N/O (stereo unspecified)
- TGI [55]: > 100 µM
- TGI [1]: > 100 µM
- TGI [2]: > 100 µM
- TGI [3]: > 100 µM
- TGI [5]: > 100 µM
- TGI [56]: > 100 µM
- TGI [7]: > 100 µM
- TGI [57]: > 100 µM
- TGI [8]: > 100 µM
- TGI [9]: > 100 µM
- TGI [10]: > 100 µM
- TGI [13]: > 100 µM
- TGI [15]: > 100 µM
- TGI [58]: > 100 µM
- TGI [16]: > 100 µM
- TGI [17]: > 100 µM
- TGI [18]: > 100 µM
- TGI [19]: > 100 µM
- TGI [60]: > 100 µM
- TGI [61]: > 100 µM
- TGI [62]: > 100 µM
- TGI [22]: > 100 µM
- TGI [63]: > 100 µM
- TGI [23]: > 100 µM
- TGI [24]: > 100 µM
- TGI [25]: > 100 µM
- TGI [27]: > 100 µM
- TGI [28]: > 100 µM
- TGI [29]: > 100 µM
- TGI [30]: > 100 µM
- TGI [31]: > 100 µM
- TGI [32]: > 100 µM
- TGI [33]: > 100 µM
- TGI [36]: > 100 µM
- TGI [38]: > 100 µM
- TGI [65]: > 100 µM
- TGI [39]: > 100 µM
- TGI [40]: > 100 µM
- TGI [66]: > 100 µM
- TGI [41]: > 100 µM
- TGI [42]: > 100 µM
- TGI [43]: > 100 µM
- TGI [44]: > 100 µM
- TGI [45]: > 100 µM
- TGI [46]: > 100 µM
- TGI [47]: > 100 µM
- TGI [48]: > 100 µM
- TGI [49]: > 100 µM
- TGI [50]: > 100 µM
- TGI [51]: > 100 µM
- TGI [52]: > 100 µM
- TGI [53]: > 100 µM
- TGI [54]: > 100 µM

Source: PubChem BioAssay (NCI)
